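All cell lines were grown in 96-well plates and treated with compound for 48 hours. At the TGI there is no net growth.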
Columns and labels:
Test in all cases: inhibition of tumour cell growth, NCI panel, 48 h
[1] = test system: HCC-2998 colon
[2] = test system: A549 NSCLC
[3] = test system: UO-31 renal
[4] = test system: 786-0 renal
[5] = test system: M14 melanoma
[6] = test system: MALME-3M melanoma
[7] = test system: BT-549 breast
[8] = test system: NCI/ADR-RES ovarian
[9] = test system: UACC-62 melanoma
[10] = test system: PC-3 prostate
[11] = test system: MDA-MB-231 breast
[12] = test system: TK-10 renal
[13] = test system: MDA-MB-435
[14] = test system: K-562 leukemia
[15] = test system: RXF 393 renal
[16] = test system: HCT-15 colon
[17] = test system: OVCAR-8 ovarian
[18] = test system: HCT-116 colon
[19] = test system: SW-620 colon
[20] = test system: SF-539 CNS

SMILES | TGI [1] [µM] | TGI [2] [µM] | TGI [3] [µM] | TGI [4] [µM] | TGI [5] [µM] | TGI [6] [µM] | TGI [7] [µM] | TGI [8] [µM] | TGI [9] [µM] | TGI [10] [µM] | TGI [11] [µM] | TGI [12] [µM] | TGI [13] [µM] | TGI [14] [µM] | TGI [15] [µM] | TGI [16] [µM] | TGI [17] [µM] | TGI [18] [µM] | TGI [19] [µM] | TGI [20] [µM]
CCOC(=O)c1c(C)noc1/N=N/N(CCO)CCO | 78.3 | > 100 | 77.2 | > 100 | > 100 | > 100 | > 100 | > 100 | > 100 | > 100 | > 100 | > 100 | > 100 | > 100 | 50.3 | > 100 | > 100 | > 100 | > 100 | –
OC12CC3c4ccccc4NC3C3Oc4cccc5c4C31CCN(CC1CC1)C2C5 (configuration not stated) | – | 38.3 | 30.4 | 32.2 | 33.8 | 34.9 | 34.7 | 47.4 | 33.3 | 32.1 | 32.4 | 31.1 | 32.3 | 52.6 | 27.7 | 35.1 | 32.3 | 33.5 | 39.1 | 90.5
CCOC(=O)CCC(NC(=O)c1ccc(Nc2cnc3cc(C(F)(F)F)ccc3n2)cc1)C(=O)OCC (configuration not stated) | > 100 | > 100 | > 100 | > 66.8 | > 100 | > 100 | 49 | > 100 | – | – | > 100 | > 100 | > 100 | > 100 | 9.64 | > 100 | > 100 | > 100 | > 100 | > 100
CC(=O)/C(N=Nc1ccc(-n2c(C)nc3ccc(Br)cc3c2=O)cc1)=C(/C)O | – | > 100 | > 100 | > 100 | > 100 | – | > 100 | > 100 | > 100 | > 100 | > 100 | > 100 | > 100 | > 100 | – | > 100 | > 100 | > 100 | > 100 | > 100
CC(O)CCNC(=O)Nc1c(C(F)(F)F)cc(-c2ccccc2)[nH]c1=O (configuration not stated) | > 100 | > 100 | > 100 | > 100 | > 100 | > 100 | > 100 | > 100 | > 100 | > 100 | > 100 | > 100 | > 100 | > 100 | > 100 | > 100 | > 100 | > 100 | > 100 | –
CC(C)(C)OC(=O)NNC(=O)C1Cc2ccccc2OC1=O (configuration not stated) | > 100 | > 100 | > 100 | > 100 | > 100 | > 100 | > 100 | > 100 | > 100 | > 100 | – | > 100 | > 100 | > 100 | > 100 | > 100 | > 100 | > 100 | > 100 | > 100
COc1cc(/C=C2\N=C(c3ccccc3)N(c3nc4cc(C)c(C)cc4s3)C2=O)cc(OC)c1OC | 45.7 | > 100 | > 100 | > 100 | > 100 | – | > 100 | > 100 | > 100 | > 100 | > 100 | > 100 | 54.9 | > 100 | 65.2 | > 100 | 47.6 | 50.4 | > 100 | 51.4
CCCCCCCC/C=C\CCCCCCCC(=O)OC[C@]1(CO)CCC(=O)O1 | > 100 | > 100 | > 100 | > 100 | > 100 | > 100 | > 100 | > 100 | > 100 | > 100 | > 100 | > 100 | > 100 | > 100 | > 100 | > 100 | > 100 | > 100 | > 100 | –
CN(C(=O)[C@@H](NC(=O)OC(C)(C)C)c1ccccc1)[C@H]1CCCC[C@@H]1N1CCCC1 | – | > 100 | > 100 | > 100 | > 100 | – | > 100 | > 100 | > 100 | > 100 | > 100 | > 100 | > 100 | > 100 | – | > 100 | > 100 | > 100 | > 100 | > 100
Cc1cc(S(=O)(=O)Nc2nc3ccccc3[nH]2)c(S)cc1Cl | > 100 | > 100 | > 100 | > 100 | > 100 | – | > 100 | > 100 | > 100 | > 100 | > 100 | > 100 | > 100 | > 100 | > 100 | > 100 | > 100 | 76.5 | > 100 | > 100
COc1cc(C2=C(C)[C@@H]3CN(CC=C3c3ccc(Cl)cc3)C2)c(S(=O)(=O)O)cc1OC | – | > 100 | > 100 | > 100 | > 100 | > 100 | > 100 | > 100 | > 100 | > 100 | > 100 | > 100 | > 100 | > 100 | > 100 | > 100 | > 100 | > 100 | > 100 | –
O=C1CCc2nc3ncccc3cc2C1 | > 100 | > 100 | > 100 | > 100 | > 100 | > 100 | > 100 | > 100 | – | > 100 | > 100 | > 100 | 82.3 | 97.7 | > 100 | > 100 | – | > 100 | > 100 | –
CN(C)CCn1c(=O)oc2cc(C(=O)CN3CCOCC3)ccc21 | – | – | > 100 | > 100 | > 100 | > 100 | > 100 | > 100 | > 100 | > 100 | > 100 | > 100 | > 100 | > 100 | > 100 | > 100 | > 100 | > 100 | > 100 | > 100
CCCC(=O)OCC1(CO)C/C(=C/CC(C(C)C)C(C)C)C(=O)O1 (configuration not stated) | > 100 | > 100 | > 100 | > 100 | – | > 100 | > 100 | > 100 | > 100 | > 100 | > 100 | > 100 | > 100 | – | > 100 | > 100 | > 100 | > 100 | > 100 | –
COC(=O)/C(=N\N)C(C(=O)C(=O)Nc1cccc([N+](=O)[O-])c1)c1nc2ccc(C(=O)c3ccccc3)cc2[nH]c1=O (configuration not stated) | > 100 | > 100 | > 100 | > 100 | > 100 | – | > 100 | > 100 | > 100 | > 100 | > 100 | > 100 | > 100 | – | > 100 | > 100 | > 100 | > 100 | > 100 | > 100
CCN(CC)CCSc1n[nH]c(-c2c[nH]c3nc(C)ccc3c2=O)n1 | – | > 100 | > 100 | > 100 | > 100 | > 100 | > 100 | > 100 | > 100 | > 100 | > 100 | > 100 | > 100 | > 100 | > 100 | > 100 | > 100 | > 100 | > 100 | –
CC(C)Oc1c(C2(c3ccccc3O)SCCCS2)c(=O)c1=O | – | > 100 | > 100 | > 100 | > 100 | – | > 100 | > 100 | > 100 | > 100 | > 100 | > 100 | > 100 | – | > 100 | > 100 | > 100 | > 100 | > 100 | > 100
O=S(Nc1ccccc1)c1ccc(-c2ccccc2)cc1 (configuration not stated) | > 100 | > 100 | > 100 | > 100 | – | > 100 | > 100 | > 100 | > 100 | – | > 100 | > 100 | > 100 | > 100 | – | > 100 | > 100 | > 100 | > 100 | > 100
CC1=C(C(=O)NNC(=O)C(N)=O)CC(C(=O)NNC(=O)C(N)=O)=C(C)N1 | > 100 | > 100 | > 100 | > 100 | > 100 | – | > 100 | > 100 | > 100 | > 100 | > 100 | > 100 | > 100 | > 100 | > 100 | > 100 | > 100 | > 100 | > 100 | > 100
c1ccc(CN2CCCN3CCN(CCCN(Cc4ccccc4)CC3)CC2)cc1 | – | > 100 | > 100 | > 100 | > 100 | – | > 100 | > 100 | > 100 | > 100 | > 100 | > 100 | > 100 | > 100 | > 100 | > 100 | > 100 | > 100 | > 100 | > 100
